{"source": "ChEMBL document CHEMBL1201862", "about": "“PubChem BioAssay data set” (2004)", "key": {"[1]": {"experiment": "potency of ADAM10 substrate cleavage blockers – biochemical, QFRET, dose response (AID 743254);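 also: ADAM10 enzyme with the DM2 quenched FRET peptide as substrate; EDANS fluorescence gain as the protease cuts the substrate; inhibitor potency against ADAM10 proteolytic activity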"}, "[2]": {"target": "Disintegrin and metalloproteinase domain-containing protein 17 (Homo sapiens, UniProt P78536)", "experiment": "inhibition of ADAM17 substrate cleavage – biochemical, quenched FRET substrate, counter-screen for ADAM10 exosite inhibitor project, dose response (AID 743253)"}, "[3]": {"experiment": "reduction of Shn3 3'UTR-driven luciferase in osteoblasts – cell-based, Clone20 osteoblasts, firefly luciferase, cherry-picked, dose response (AID 624132)", "assay_type": "functional"}, "Protein Wnt-3a": {"target": "Protein Wnt-3a (Mus musculus, UniProt P27467)", "experiment": "antagonism of Wnt3a pathway luciferase reporter – Wnt-LIGHT cells, luminescence, selectivity assay for Gli-SUFU antagonist project, dose response (AID 651570);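 also: Wnt-LIGHT reporter cells stimulated with conditioned medium from Wnt3a-producing cells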", "assay_type": "functional", "settings": "read-out: IC50_Mean"}, "[4]": {"target": "COUP transcription factor 2 (Homo sapiens, UniProt P24468)", "experiment": "Luminescence-based cell-based high throughput dose response assay to identify inhibitors of COUP-TFII (NR2F2).", "assay_type": "functional"}, "[5]": {"experiment": "non-specific 3'UTR reporter inhibition in Clone20-Shn3RL – cell-based, Renilla luciferase, cherry-picked, counter-screen for Shn3 inhibitor project, dose response (AID 624133)", "assay_type": "functional"}, "cells [6]": {"experiment": "cells", "assay_type": "functional, cell-based", "settings": "HEK-CNG"}, "Galanin receptor type 3": {"target": "T1, Galanin receptor type 3 (Homo sapiens, UniProt O60755)", "T1 sequence (O60755 whole entry)": "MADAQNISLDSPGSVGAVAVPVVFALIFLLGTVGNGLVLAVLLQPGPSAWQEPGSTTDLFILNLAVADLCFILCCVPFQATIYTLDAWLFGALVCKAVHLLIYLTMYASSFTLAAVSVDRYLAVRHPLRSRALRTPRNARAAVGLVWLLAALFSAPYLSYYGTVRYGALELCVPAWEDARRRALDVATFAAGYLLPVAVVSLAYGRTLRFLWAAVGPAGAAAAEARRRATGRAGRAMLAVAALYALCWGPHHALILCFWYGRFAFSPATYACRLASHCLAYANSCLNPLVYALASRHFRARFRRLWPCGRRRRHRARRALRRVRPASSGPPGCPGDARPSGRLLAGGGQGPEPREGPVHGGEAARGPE", "experiment": "Fluorescence-based cell-based primary high throughput dose response assay to identify antagonists of the Galanin Receptor 3 (GalR3).", "assay_type": "functional"}, "[7]": {"experiment": "loss of viability in HepG2 cells – cell-based, CellTiter-Glo, cherry-picked, cytotoxicity control for Shn3 inhibitor project, dose response (AID 624134)", "assay_type": "functional"}, "Major prion protein": {"target": "Major prion protein (Homo sapiens, UniProt P04156)", "assay_type": "functional, cell-based"}, "cells [8]": {"experiment": "cells"}, "[9]": {"experiment": "viability loss in HepG2 liver cells – cell-based, ATP luminescence, cherry-pick, set 6, cytotoxicity control, dose response (AID 1053125)", "assay_type": "functional"}, "cells [10]": {"experiment": "cells", "settings": "A549"}, "[11]": {"experiment": "IC50 of Artemis nuclease activity blockers – biochemical, fluorescence intensity, dose response (AID 720701);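 also: Artemis endonuclease enzyme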", "assay_type": "functional"}, "[12]": {"target": "FAD-linked sulfhydryl oxidase ALR (Homo sapiens, UniProt P55789)", "experiment": "ALR-catalysed DTT oxidation blockers – biochemical, H2O2 detection, luminescence, cherry-pick, dose response (AID 493248)"}, "[13]": {"target": "T2, Rac GTPase-activating protein 1 (Homo sapiens, UniProt Q9H0H5)", "T2 sequence (Q9H0H5 whole entry)": "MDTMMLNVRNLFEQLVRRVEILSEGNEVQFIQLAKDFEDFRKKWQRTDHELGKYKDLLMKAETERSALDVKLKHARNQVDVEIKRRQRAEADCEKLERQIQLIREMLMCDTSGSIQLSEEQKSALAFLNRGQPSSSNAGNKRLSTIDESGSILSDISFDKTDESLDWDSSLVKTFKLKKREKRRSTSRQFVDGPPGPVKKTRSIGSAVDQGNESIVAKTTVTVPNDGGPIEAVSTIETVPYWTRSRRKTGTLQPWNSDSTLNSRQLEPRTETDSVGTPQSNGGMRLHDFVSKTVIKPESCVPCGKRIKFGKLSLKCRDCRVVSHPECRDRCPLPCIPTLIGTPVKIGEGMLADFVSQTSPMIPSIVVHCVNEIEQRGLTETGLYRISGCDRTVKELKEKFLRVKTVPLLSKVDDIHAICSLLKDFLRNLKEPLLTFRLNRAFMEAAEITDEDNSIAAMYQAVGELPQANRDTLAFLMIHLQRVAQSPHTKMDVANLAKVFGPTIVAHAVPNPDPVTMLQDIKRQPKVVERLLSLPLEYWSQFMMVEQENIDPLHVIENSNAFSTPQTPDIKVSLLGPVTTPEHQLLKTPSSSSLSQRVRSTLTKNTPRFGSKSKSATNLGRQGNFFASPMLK", "experiment": "blockers of MgcRacGAP-driven Rac1 GTP hydrolysis – biochemical, ADP Hunter fluorescence, primary and confirmatory, confirmation (AID 624330)", "assay_type": "functional"}, "Protein Tat": {"target": "Protein Tat (Human immunodeficiency virus type 1 group M subtype B (isolate HXB2)(HIV-1), UniProt P04608)", "assay_type": "functional"}, "[14]": {"target": "Peroxisome proliferator-activated receptor gamma/Nuclear receptor coactivator 2 (Homo sapiens, UniProt P37231)", "experiment": "(§1) TR-FRET dose response biochemical High Throughput Screening assay for agonists of the steroid receptor coactivator 2 (SRC-2) recruitment by the peroxisome proliferator-activated receptor gamma (PPAR gamma): non-selective agonists. [Related pubchem assays: 1297, 1032 ]", "assay_type": "functional"}, "[15]": {"target": "Peroxisome proliferator-activated receptor gamma/Nuclear receptor coactivator 1 (Homo sapiens, UniProt P37231)", "experiment": "as §1, with “1 (SRC-1)” for “2 (SRC-2)”, “assays (depositor defined):AID1300, AID1808, AID504735, AID631]” for “assays: 1297, 1032 ]”", "assay_type": "protein assay"}, "[16]": {"target": "Peroxisome proliferator-activated receptor gamma/Nuclear receptor coactivator 3 (Homo sapiens, UniProt P37231)", "experiment": "as §1, with “3 (SRC-3)” for “2 (SRC-2)”, “1301 (Confirmation screen.), 1048 (Primary screen.)]” for “1297, 1032 ]”", "assay_type": "functional"}}, "note": "Calls of active or inactive are those of the source."}
{"compound": "NC(=O)[C@@H]1CC2(CC(c3cccc(NC(=O)CC(c4ccccc4)c4ccccc4)c3)=NO2)CN1C(=O)COc1ccc(Cl)cc1", "note": "(some centres not stated)", "values": [{"measurement": "IC50", "setting": "[1]", "result": "> 69.5 µM (inactive)"}, {"measurement": "IC50", "setting": "[2]", "result": "> 69.5 µM (inactive)"}]}
{"compound": "Cc1nn(C)c(C(=O)NCc2ccc(Cl)cc2)c1Cl", "values": [{"measurement": "AC50", "setting": "[3]", "result": "1.74 µM (active)"}, {"measurement": "IC50", "setting": "Protein Wnt-3a", "result": "1.92 µM (active)"}, {"measurement": "IC50", "setting": "[4]", "result": "14 µM (inactive)"}, {"measurement": "AC50", "setting": "[5]", "result": "6.29 µM (active)"}, {"measurement": "EC50", "setting": "cells [6]", "result": "> 29.9 µM (inactive)"}, {"measurement": "IC50", "setting": "Galanin receptor type 3", "result": "0.158 µM (active)"}, {"measurement": "AC50", "setting": "[7]", "result": "49.8 µM (active)"}]}
{"compound": "CCOC(=O)N1CCN(C(=O)COc2ccc3ccccc3c2Br)CC1", "values": [{"measurement": "IC50", "setting": "Major prion protein", "result": "6.28 µM (active)"}, {"measurement": "IC50", "setting": "cells [8]", "result": "> 138 µM (inactive)"}]}
{"compound": "CN(C)CCOCCOc1ccc(Cl)c2ccccc12", "values": [{"measurement": "AC50", "setting": "[9]", "result": "> 52 µM (inactive)"}, {"measurement": "AC50", "setting": "cells [10]", "result": "> 52 µM (inactive)"}]}
{"compound": "CCOC(=O)C1CCCN(Cc2nc(N)nc(Nc3ccc(Cl)cc3)n2)C1", "note": "(configuration not stated)", "values": [{"measurement": "IC50", "setting": "[11]", "result": "> 20 µM (inactive)"}]}
{"compound": "CC(=O)N1CCN(c2ccc(NCc3ccc(F)cc3)cc2)CC1", "values": [{"measurement": "AC50", "setting": "[12]", "result": "0.198 µM (active)"}, {"measurement": "IC50", "setting": "[13]", "result": "12.9 µM (active)"}, {"measurement": "IC50", "setting": "Protein Tat", "result": "> 100 µM (inconclusive)"}]}
{"compound": "CNC(=O)NC(=O)CSc1nc(-c2cccs2)c(C#N)c(=O)[nH]1", "values": [{"measurement": "EC50", "setting": "[14]", "result": "> 79.4 µM (not active)"}, {"measurement": "EC50", "setting": "[15]", "result": "> 79.4 µM (inactive)"}, {"measurement": "IC50", "setting": "Major prion protein", "result": "0.876 µM (active)"}, {"measurement": "EC50", "setting": "[16]", "result": "> 79.4 µM (not active)"}]}
{"compound": "CNC(=O)NC(=O)CSc1nc(O)c(C#N)c(-c2cccs2)n1", "values": [{"measurement": "IC50", "setting": "cells [8]", "result": "> 138 µM (inactive)"}]}
